From patent US20200231638A1, “STABILIZED ANTI-MICROBIAL PEPTIDES” (priority 2015, published 2020)
Bridge positions count the residues as written; N and C are the ends. Square brackets hold non-standard residues; d marks the D form. Peptide text beside a SMILES is read from it. R8 = C=CCCCCCC[C@@](C)(N)C(=O)O; S5 = C=CCCC[C@](C)(N)C(=O)O; Nle = CCCC[C@H](N)C(=O)O; Aib = CC(C)(N)C(=O)O

Assays:
S. aureus = type: cell-based, Staphylococcus aureus
Protocol: (§1) Antimicrobial Activity Assay:
(§2) The following microbroth dilution protocol was adapted to determine the minimum inhibitory concentration (MIC) of each peptide. First, Mueller-Hinton broth (MHB) was passed through an anion exchange column to remove polyanionic species and generate refined MHB. […] Briefly, bacterial cells was grown overnight in refined MHB at 37° C. and then diluted and allowed to grow again for several hours. Serial dilutions of peptide stocks in water (10 μl) were prepared using clear round-bottom polypropylene 96-well plates. Then 90 μl of bacteria in refined MHB was added to give a final inoculum of 5×10^5 CFU/ml. The plates were then covered with porous tape to reduce evaporation, and incubated for 20-24 hours at 37° C. The MIC is the minimum peptide concentration at which no visible growth was observed.

E. coli = type: cell-based, Escherichia coli
Protocol: as §1, §2

human red blood cells = type: cell-based; settings: red cells of human, 1 h, 25
Protocol: FIG. 5 is a series of line graphs depicting the hemolytic activity of magainin II and stapled analogues. Peptides were incubated with 1% (v/v) human red blood cells in phosphate-buffered solution for 1 hour at 37° C. and then the supernatant was isolated and the amount of hemoglobin released was measured at 540 nm. % hemolysis was calculated relative to an untreated control.
Hemolytic Activity Assay:
For the determination of hemolytic activity, human blood samples were centrifuged to isolate red blood cells (RBCs), which are then washed and suspended in phosphate-buffered saline to yield a 1% (v/v) suspension. The suspension was then added to serial dilutions of peptide stocks in water in clear round-bottom polypropylene 96-well plates and the plates were incubated for 1 hour at 37° C. After incubation, the plates were centrifuged and the supernatant was isolated to determine the amount of hemoglobin released using a spectrophotometer (570 nm), according to the equation: % Hemolysis=(Treated Absorbance−Untreated Control Absorbance)/(1% Triton-X100 Treated Absorbance−Untreated Control Absorbance). The minimum hemolytic concentration (MHC) is the peptide concentration at which there is less than 1% hemoglobin release.

P. aeruginosa = type: cell-based, Pseudomonas aeruginosa
Protocol: as §1, §2

B. cereus = type: cell-based, Bacillus cereus
Protocol: as §1, §2

MIC S. aureus (S. aureus) | MIC E. coli (E. coli) | MIC P. aeruginosa (P. aeruginosa) | MIC B. cereus (B. cereus) | SMILES | % Hemolysis at 25 μg/ml (human red blood cells)
3.1 µg/mL | 1.6 µg/mL | 3.1 µg/mL | 3.1 µg/mL | CCCC[C@H](NC(=O)[C@]1(C)CCCC=CCCC[C@](C)(NC(=O)[C@H](C)NC(=O)[C@H](CCCCN)NC(=O)C(C)(C)NC(=O)[C@H](Cc2ccccc2)NC(=O)[C@H](CCCCN)NC(=O)[C@H](CCCCN)NC(=O)[C@H](C)NC(=O)[C@H](CO)NC(=O)[C@H](Cc2c[nH]cn2)NC(=O)[C@H](CC(C)C)NC(=O)[C@H](Cc2ccccc2)NC(=O)[C@H](CCCCN)NC(=O)CNC(=O)[C@@H](NC(=O)CN)[C@@H](C)CC)C(=O)N[C@@H](C(C)C)C(=O)NCC(=O)N[C@@H](CCC(=O)O)C(=O)N1)C(=O)N[C@@H](CC(N)=O)C(=O)N[C@@H](CO)C(N)=O [Mag(i + 4)15(G13!), GIGKFLHSAKKF!KAXVGEXBNS] (H-GIGKFLHSAKKF[Aib]KA[S5]VGE[S5][Nle]NS-NH2; staple 16-20) | 71.5%
>50 µg/mL | 50 µg/mL | >50 µg/mL | >50 µg/mL | CCCC[C@H](NC(=O)[C@]1(C)CCCC=CCCC[C@](C)(NC(=O)[C@H](C)NC(=O)[C@H](CCCCN)NC(=O)CNC(=O)[C@H](Cc2ccccc2)NC(=O)[C@H](CCCCN)NC(=O)[C@H](CCCCN)NC(=O)[C@H](CCC(=O)O)NC(=O)[C@H](CO)NC(=O)[C@H](Cc2c[nH]cn2)NC(=O)[C@H](CC(C)C)NC(=O)[C@H](Cc2ccccc2)NC(=O)[C@H](CCCCN)NC(=O)CNC(=O)[C@@H](NC(=O)CN)[C@@H](C)CC)C(=O)N[C@@H](C(C)C)C(=O)NCC(=O)N[C@@H](CCC(=O)O)C(=O)N1)C(=O)N[C@@H](CC(N)=O)C(=O)N[C@@H](CO)C(N)=O [Mag(i + 4)15(A9E), GIGKFLHSEKKFGKAXVGEXBNS] (H-GIGKFLHSEKKFGKA[S5]VGE[S5][Nle]NS-NH2; staple 16-20) | 0.6%
3.1 µg/mL | 3.1 µg/mL | 6.2 µg/mL | 3.1 µg/mL | CCCC[C@H](NC(=O)[C@@H](NC(=O)[C@H](CCC(=O)O)NC(=O)CNC(=O)[C@@H](NC(=O)[C@H](Cc1ccccc1)NC(=O)[C@]1(C)CCCC=CCCCCCC[C@@](C)(NC(=O)[C@H](Cc2c[nH]cn2)NC(=O)[C@H](CC(C)C)NC(=O)[C@H](Cc2ccccc2)NC(=O)[C@H](CCCCN)NC(=O)CNC(=O)[C@@H](NC(=O)CN)[C@@H](C)CC)C(=O)N[C@@H](C)C(=O)N[C@@H](CCCCN)C(=O)N[C@@H](CCCCN)C(=O)N[C@@H](Cc2ccccc2)C(=O)NCC(=O)N[C@@H](CCCCN)C(=O)N1)C(C)C)[C@@H](C)CC)C(=O)N[C@@H](CC(N)=O)C(=O)N[C@@H](CO)C(N)=O [Mag(i + 7)7] (H-GIGKFLH[R8]AKKFGK[S5]FVGEI[Nle]NS-NH2; staple 8-15 (inferred); N-terminus and C-terminus assumed) | 95.5%
>50 µg/mL | 12.5 µg/mL | >50 µg/mL | >50 µg/mL | CCCC[C@H](NC(=O)[C@]1(C)CCCC=CCCC[C@](C)(NC(=O)[C@H](C)NC(=O)[C@H](CCCCN)NC(=O)CNC(=O)[C@H](Cc2ccccc2)NC(=O)[C@H](CCCCN)NC(=O)[C@H](CCCCN)NC(=O)[C@H](C)NC(=O)[C@H](CO)NC(=O)[C@H](Cc2c[nH]cn2)NC(=O)[C@H](CC(C)C)NC(=O)[C@H](Cc2ccccc2)NC(=O)[C@H](CCCCN)NC(=O)CNC(=O)[C@H](CCC(=O)O)NC(=O)CN)C(=O)N[C@@H](C(C)C)C(=O)NCC(=O)N[C@@H](CCC(=O)O)C(=O)N1)C(=O)N[C@@H](CC(N)=O)C(=O)N[C@@H](CO)C(N)=O [Mag(i + 4)15(I2E), GEGKFLHSAKKFGKAXVGEXBNS] (H-GEGKFLHSAKKFGKA[S5]VGE[S5][Nle]NS-NH2; staple 16-20) | 3.6%
